Test results as given in ChEMBL document CHEMBL1201862, “PubChem BioAssay data set” (2004).
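Values below derive from 48-hour exposures of cells grown in 96-well plates, with endpoints linearly interpolated between the two concentrations bracketing the appropriate inhibition level. At the GI50, growth is halved.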 Active and inactive are the calls of the source. Cut-off read from the data, not from the text of the source: active = GI50 up to about 1.1 µM and inactive = higher.

Tests used:
Test in all cases: growth of human tumour cells (NCI), 48 h
NCI-H23 = tested on: NCI-H23
TK-10 = tested on: TK-10
U-251 = tested on: U-251
Malme-3M = tested on: Malme-3M
HT-29 = tested on: HT-29
IGROV-1 = tested on: IGROV-1
NCI-H226 = tested on: NCI-H226
SK-MEL-5 = tested on: SK-MEL-5
MOLT-4 = tested on: MOLT-4
A498 = tested on: A498
CCRF-CEM = tested on: CCRF-CEM
Hs-578T = tested on: Hs-578T
SK-MEL-28 = tested on: SK-MEL-28
A549 = tested on: A549
SW-620 = tested on: SW-620
HCC 2998 = tested on: HCC 2998
NCI-H460 = tested on: NCI-H460
RXF 393 = tested on: RXF 393

Measured: GI50

CC(=O)/C=c1\[nH]/c(=C\C=C\c2ccccc2)c(=O)n1/C=C1\C(=O)Oc2ccccc2C1=O
inactive: NCI-H23 > 100 µM | TK-10 > 100 µM | U-251 > 100 µM | Malme-3M > 100 µM | HT-29 > 100 µM | IGROV-1 > 100 µM | NCI-H226 > 100 µM | SK-MEL-5 > 100 µM | MOLT-4 > 100 µM | A498 15.3 µM | CCRF-CEM > 100 µM | Hs-578T > 100 µM | SK-MEL-28 > 100 µM | A549 > 100 µM | SW-620 > 100 µM

OC1CC2CCCN(CCc3c1[nH]c1ccccc31)C2 (stereo not given)
inactive: NCI-H23 > 100 µM | TK-10 > 100 µM | HCC 2998 > 100 µM | U-251 > 100 µM | Malme-3M > 100 µM | HT-29 > 100 µM | NCI-H226 > 100 µM | SK-MEL-5 47.3 µM | NCI-H460 > 100 µM | A498 > 100 µM | CCRF-CEM > 100 µM | Hs-578T > 100 µM | SK-MEL-28 > 100 µM | A549 > 100 µM | SW-620 > 100 µM

C[C@@H](O)C(=O)N1[C@@H]2CC3CC[C@]2(CS1(=O)=O)C3(C)C
inactive: NCI-H23 62.2 µM | TK-10 > 100 µM | HCC 2998 49.1 µM | U-251 52.1 µM | HT-29 > 100 µM | IGROV-1 > 100 µM | NCI-H226 23.2 µM | SK-MEL-5 49.2 µM | MOLT-4 31.1 µM | NCI-H460 85.9 µM | RXF 393 > 100 µM | CCRF-CEM 24.2 µM | SK-MEL-28 76.2 µM | A549 95.1 µM | SW-620 28.1 µM

CS(=O)(=O)OCCCSCCSCCCOS(C)(=O)=O
inactive: NCI-H23 > 100 µM | TK-10 > 100 µM | HCC 2998 > 100 µM | U-251 > 100 µM | HT-29 > 100 µM | IGROV-1 > 100 µM | SK-MEL-5 > 100 µM | MOLT-4 > 100 µM | NCI-H460 > 100 µM | CCRF-CEM > 100 µM | SK-MEL-28 > 100 µM | A549 > 100 µM | SW-620 > 100 µM

O=C(Nc1ccccc1)OCCN=c1c2ccccc2ccc2ccccc12
inactive: NCI-H23 35.1 µM | TK-10 31.4 µM | HCC 2998 11.2 µM | U-251 25.9 µM | Malme-3M 18.7 µM | HT-29 17.2 µM | IGROV-1 27.9 µM | NCI-H226 32.1 µM | SK-MEL-5 14.1 µM | MOLT-4 15.7 µM | NCI-H460 22.8 µM | RXF 393 23.8 µM | CCRF-CEM 18.9 µM | Hs-578T 11.5 µM | SK-MEL-28 23.7 µM | A549 19.9 µM | SW-620 31.9 µM

COC(=O)c1c(C)cccc1C1CN=NC12Cc1cc(C)c(C)cc1C2=O (stereo not given)
inactive: NCI-H23 29.9 µM | TK-10 51.4 µM | HCC 2998 > 100 µM | U-251 41.6 µM | Malme-3M 57.8 µM | HT-29 36.8 µM | IGROV-1 > 100 µM | NCI-H226 47.9 µM | SK-MEL-5 17.1 µM | MOLT-4 33.9 µM | NCI-H460 47.9 µM | RXF 393 68.4 µM | CCRF-CEM 37.8 µM | Hs-578T 96.4 µM | SK-MEL-28 > 100 µM | A549 27.8 µM | SW-620 52.6 µM

COc1ccc(NC(=O)CC(=O)NN2C(=O)/C(=C/c3ccc(N(CCC#N)CCC#N)cc3C)N=C2/C=C\c2ccccc2)cc1
inactive: NCI-H23 > 100 µM | TK-10 > 100 µM | U-251 > 100 µM | Malme-3M > 100 µM | HT-29 > 100 µM | IGROV-1 > 100 µM | NCI-H226 > 100 µM | SK-MEL-5 > 100 µM | MOLT-4 > 100 µM | NCI-H460 > 100 µM | A498 > 100 µM | CCRF-CEM > 100 µM | SK-MEL-28 > 100 µM | A549 > 100 µM | SW-620 > 100 µM

ON=C1CCCCC(=NO)CCCC1
inactive: NCI-H23 > 100 µM | TK-10 > 100 µM | HCC 2998 > 100 µM | U-251 > 100 µM | Malme-3M > 100 µM | HT-29 > 100 µM | NCI-H226 > 100 µM | SK-MEL-5 > 100 µM | NCI-H460 > 100 µM | A498 > 100 µM | Hs-578T > 100 µM | SK-MEL-28 > 100 µM | A549 > 100 µM | SW-620 > 100 µM

O=C1c2cccc3cc([N+](=O)[O-])cc(c23)C(=O)N1O
inactive: NCI-H23 30.8 µM | TK-10 25.9 µM | HCC 2998 25.2 µM | U-251 41.8 µM | Malme-3M 28.4 µM | HT-29 31 µM | IGROV-1 22.9 µM | NCI-H226 31 µM | SK-MEL-5 35.6 µM | MOLT-4 28.1 µM | NCI-H460 27.2 µM | RXF 393 33 µM | CCRF-CEM 27 µM | Hs-578T 38.7 µM | SK-MEL-28 45.8 µM | A549 33.6 µM | SW-620 38.2 µM

O=c1[nH]nc(Cc2ccccc2)n1/N=C/c1c[nH]c2ccccc12
inactive: NCI-H23 > 100 µM | TK-10 35.3 µM | HCC 2998 > 100 µM | U-251 52.1 µM | Malme-3M 57.1 µM | HT-29 71.6 µM | IGROV-1 > 100 µM | NCI-H226 > 100 µM | SK-MEL-5 > 100 µM | MOLT-4 > 100 µM | NCI-H460 > 100 µM | A498 > 100 µM | CCRF-CEM > 100 µM | Hs-578T 25.4 µM | SK-MEL-28 > 100 µM | A549 66.1 µM | SW-620 > 100 µM

Cc1cn(C(=O)NC23CC4CC(CC(C4)C2)C3)c(=O)[nH]c1=O
inactive: NCI-H23 32.1 µM | TK-10 32.8 µM | HCC 2998 50.4 µM | U-251 43.5 µM | Malme-3M 44.7 µM | HT-29 33.8 µM | NCI-H226 24.9 µM | SK-MEL-5 38.3 µM | MOLT-4 41.5 µM | NCI-H460 42.9 µM | RXF 393 21.6 µM | CCRF-CEM 25.6 µM | Hs-578T 32.7 µM | SK-MEL-28 67.5 µM | A549 35.9 µM | SW-620 40.6 µM

Nc1ccc(C(=O)O)cc1 [AMINOBENZOIC ACID]
inactive: NCI-H23 > 100 µM | TK-10 > 100 µM | HCC 2998 > 100 µM | U-251 > 100 µM | Malme-3M > 100 µM | HT-29 > 100 µM | IGROV-1 > 100 µM | NCI-H226 > 100 µM | SK-MEL-5 > 100 µM | MOLT-4 > 100 µM | NCI-H460 > 100 µM | CCRF-CEM > 100 µM | Hs-578T > 100 µM | SK-MEL-28 > 100 µM | A549 > 100 µM | SW-620 > 100 µM

Cc1ccc2c(c1C)CC1(Cc3ccc(C)c(C)c3C1=O)C2=O (stereo not given)
inactive: TK-10 29.7 µM | HCC 2998 > 100 µM | U-251 44 µM | Malme-3M > 100 µM | IGROV-1 21.7 µM | NCI-H226 52.1 µM | SK-MEL-5 76.9 µM | MOLT-4 > 100 µM | NCI-H460 > 100 µM | RXF 393 17.1 µM | CCRF-CEM > 100 µM | Hs-578T 91.8 µM | SK-MEL-28 > 100 µM | A549 35.7 µM | SW-620 > 100 µM

CN(C)C1(N(C)C)Oc2c(c(=O)n(C)c(=O)n2C)C(c2ccccc2Br)C1(F)F (stereo not given)
inactive: NCI-H23 > 100 µM | TK-10 > 100 µM | HCC 2998 > 100 µM | U-251 > 100 µM | NCI-H226 > 100 µM | SK-MEL-5 > 100 µM | MOLT-4 > 100 µM | NCI-H460 > 100 µM | RXF 393 > 100 µM | A498 > 100 µM | CCRF-CEM > 100 µM | SK-MEL-28 > 100 µM | A549 > 100 µM | SW-620 > 100 µM

COc1ccc(/C=C(\C#N)c2nc3ccccc3c(=O)[nH]2)cc1
inactive: TK-10 23.3 µM | HCC 2998 49.5 µM | U-251 9.42 µM | Malme-3M > 100 µM | HT-29 > 100 µM | IGROV-1 30.3 µM | NCI-H226 27 µM | SK-MEL-5 19.5 µM | MOLT-4 > 100 µM | NCI-H460 16.6 µM | RXF 393 15.5 µM | CCRF-CEM > 100 µM | Hs-578T 15.1 µM | SK-MEL-28 > 100 µM | A549 45.9 µM | SW-620 50.4 µM

N#CC(C#N)=CNCCN1CCN(C=C(C#N)C#N)CC1
inactive: NCI-H23 > 100 µM | TK-10 > 100 µM | U-251 > 100 µM | Malme-3M > 100 µM | HT-29 > 100 µM | IGROV-1 > 100 µM | NCI-H226 > 100 µM | SK-MEL-5 > 100 µM | MOLT-4 > 100 µM | NCI-H460 > 100 µM | A498 > 100 µM | Hs-578T > 100 µM | SK-MEL-28 > 100 µM | A549 > 100 µM | SW-620 > 100 µM

Cc1cc(C)nc(NC(P(=O)(O)O)P(=O)(O)O)n1
inactive: NCI-H23 > 100 µM | TK-10 > 100 µM | HCC 2998 > 100 µM | Malme-3M > 100 µM | HT-29 > 100 µM | IGROV-1 > 100 µM | NCI-H226 > 100 µM | SK-MEL-5 > 100 µM | NCI-H460 > 100 µM | RXF 393 > 100 µM | Hs-578T > 100 µM | A549 > 100 µM

O=C(Nc1ccc2ncccc2c1)c1cc2c(cc1Cl)Sc1nccn1S2(=O)=O
inactive: NCI-H23 15.6 µM | TK-10 20.4 µM | HCC 2998 14.7 µM | U-251 13.6 µM | Malme-3M 16.7 µM | HT-29 16.7 µM | IGROV-1 12.6 µM | NCI-H226 18.1 µM | SK-MEL-5 15.3 µM | MOLT-4 18.4 µM | NCI-H460 15.7 µM | RXF 393 15.6 µM | Hs-578T 31.2 µM | SK-MEL-28 18.4 µM | A549 17.5 µM | SW-620 16 µM
